From patent US10640507B2, “PBD antibacterial agents” (KING'S COLLEGE LONDON, priority 2015, dated 2020)
Where two headings read alike, the source gives them in different places.

Assays:
Assay type in all cases: cell-based
Conditions in all cases: drug at 4×MIC
[1] = system: A. baumannii - NCTC13424
Description: (§1) 1. Grow bacteria overnight.
(§2) 2. Subculture into an autoclaved conical flask containing 10 ml of TSB to an OD of 0.01 (˜1×10^7 Cfu/ml for KP-M6).
(§3) 4. Take aliquots (100 μl) at timepoints (0, 1, 2, 4, 6, 24 hours) and carry out a serial dilution in PBS (to remove drug and to dilute bacteria to countable numbers).
(§4) 5. Use the serial dilution to perform a Miles Misra—i.e. Add 3×10 μl spots of each dilution onto an agar plate. Incubate overnight and count colonies on spots in the morning.
(§5) 6. Control: Subculture bacteria alongside samples but with no antibiotic added. Take aliquots from this at every time point (0, 1, 2, 4, 6, 24 hours) and perform Miles Misra on these too (as detailed in points 4 and 5 above).
(§6) 7. After the first experiment, if the counts seen on Miles-Misra were zero, total viable counts were determined by spreading 200 μl in a streak down the centre of a TSB agar plate, waiting for the liquid to be absorbed and then spreading over the plate and checking for growth inhibition at the sight of the original streak.
(§7) 8. The compound is considered bactericidal if the inoculum was reduced >3 log10 CFU/ml and bacteriostatic if inoculum was reduced by 0-3 log10 CFU/ml.
(§8) Three measurements were taken for each compound at each time point. These measurements were averaged and the standard deviation was also calculated.

[2] = system: K. pneumonia - NCTC 13368
Description: as §1, §2, §3, §4, §5, §6, §7, §8

[3] = system: K. pneumonia - NCTC 13438
Description: as §1, §2, §3, §4, §5, §6, §7, §8

[4] = system: A. baumannii - AYE
Description: as §1, §2, §3, §4, §5, §6, §7, §8

COc1cc2c(cc1OCCCC(=O)Nc1cc(C(=O)Nc3ccc4sc(C(=O)N(C)C)cc4c3)n(C)c1)N=C[C@@H]1CCCN1C2=O [KMR-14-33, (S)—N-(2-(dimethylcarbamoyl)benzo[b]thiophen-5-yl)-4-(4-((7-methoxy-5-oxo-2,3,5,11a-tetrahydro-1H-benzo[e]pyrrolo[1,2-a][1,4]-diazepin-8-yl)oxy)butanamido)-1-methyl-1H-pyrrole-2-carboxamide]
100 CFU/ml: n = 2 (Log CFU/ml) ([3]; time-point 2 hours)
6250 CFU/mL: n = 1 (CFU/mL) ([1]; time-point 24 hours)
940 CFU/ml: n = 2 (CFU/ml) ([1]; time-point 1 hours)
1334 CFU/ml: Average (Log CFU/ml) ([4]; time-point 6 hours)
1923.667 Log CFU/ml: Average (Log CFU/ml) ([1]; time-point 1 hours)
2084 Log CFU/ml: Average (Log CFU/ml) ([1]; time-point 24 hours)
85 CFU/ml: n = 3 (Log CFU/ml) ([4]; time-point 4 hours)
110000 CFU/mL: viable count ([2]; time-point 2 hours)
6667.333 CFU/ml: Average (Log CFU/ml) ([4]; time-point 24 hours)
18850000 CFU/ml: Average (Log CFU/ml) ([2]; time-point 1 hours)
1 CFU/ml: n = 3 (Log CFU/ml) ([3]; time-point 1 hours)
4000 CFU/ml: n = 3 (Log CFU/ml) ([4]; time-point 6 hours)
900000 CFU/ml: n = 2 (Log CFU/ml) ([2]; time-point 2 hours)
0 CFU/ml: Average (CFU/ml) ([2]; time-point 4 hours) | n = 2 (CFU/ml) ([2]; time-point 4 hours) | Average (CFU/ml) ([2]; time-point 6 hours) | n = 2 (CFU/ml) ([2]; time-point 6 hours) | Average (CFU/ml) ([2]; time-point 24 hours) | n = 2 (CFU/ml) ([2]; time-point 24 hours) | n = 1 (Log CFU/ml) ([3]; time-point 2 hours) | n = 3 (Log CFU/ml) ([3]; time-point 2 hours) | Average (Log CFU/ml) ([3]; time-point 4 hours) | n = 1 (Log CFU/ml) ([3]; time-point 4 hours) | n = 2 (Log CFU/ml) ([3]; time-point 4 hours) | n = 3 (Log CFU/ml) ([3]; time-point 4 hours) | Average (Log CFU/ml) ([3]; time-point 6 hours) | n = 1 (Log CFU/ml) ([3]; time-point 6 hours) | n = 2 (Log CFU/ml) ([3]; time-point 6 hours) | n = 3 (Log CFU/ml) ([3]; time-point 6 hours) | Average (Log CFU/ml) ([3]; time-point 24 hours) | n = 1 (Log CFU/ml) ([3]; time-point 24 hours) | n = 2 (Log CFU/ml) ([3]; time-point 24 hours) | n = 3 (Log CFU/ml) ([3]; time-point 24 hours) | Average (Log CFU/ml) ([4]; time-point 1 hours) | n = 1 (Log CFU/ml) ([4]; time-point 1 hours) | n = 2 (Log CFU/ml) ([4]; time-point 1 hours) | n = 3 (Log CFU/ml) ([4]; time-point 1 hours) | Average (Log CFU/ml) ([4]; time-point 2 hours) | n = 1 (Log CFU/ml) ([4]; time-point 2 hours) | n = 2 (Log CFU/ml) ([4]; time-point 2 hours) | n = 3 (Log CFU/ml) ([4]; time-point 2 hours) | n = 1 (Log CFU/ml) ([4]; time-point 4 hours) | n = 2 (Log CFU/ml) ([4]; time-point 4 hours) | n = 1 (Log CFU/ml) ([4]; time-point 6 hours) | n = 2 (Log CFU/ml) ([4]; time-point 6 hours) | n = 1 (Log CFU/ml) ([4]; time-point 24 hours) | n = 3 (Log CFU/ml) ([4]; time-point 24 hours)
20000 CFU/ml: n = 2 (Log CFU/ml) ([4]; time-point 24 hours)
505000 CFU/ml: Average (CFU/ml) ([2]; time-point 2 hours)
0 CFU/mL: viable count ([2]; time-point 4 hours) | viable count ([2]; time-point 6 hours) | viable count ([2]; time-point 24 hours)
0 Log CFU/ml: n = 1 (Log CFU/ml) ([1]; time-point 1 hours) | Average (Log CFU/ml) ([1]; time-point 2 hours) | n = 1 (Log CFU/ml) ([1]; time-point 2 hours) | n = 2 (Log CFU/ml) ([1]; time-point 2 hours) | n = 3 (Log CFU/ml) ([1]; time-point 2 hours) | Average (Log CFU/ml) ([1]; time-point 4 hours) | n = 1 (Log CFU/ml) ([1]; time-point 4 hours) | n = 2 (Log CFU/ml) ([1]; time-point 4 hours) | n = 3 (Log CFU/ml) ([1]; time-point 4 hours) | Average (Log CFU/ml) ([1]; time-point 6 hours) | n = 1 (Log CFU/ml) ([1]; time-point 6 hours) | n = 2 (Log CFU/ml) ([1]; time-point 6 hours) | n = 3 (Log CFU/ml) ([1]; time-point 6 hours) | n = 2 (Log CFU/ml) ([1]; time-point 24 hours) | n = 3 (Log CFU/ml) ([1]; time-point 24 hours)
2000000 CFU/ml: n = 2 (Log CFU/ml) ([3]; time-point 1 hours)
34 CFU/ml: Average (Log CFU/ml) ([3]; time-point 2 hours)
36000000 CFU/ml: n = 2 (Log CFU/ml) ([2]; time-point 1 hours)
29 CFU/ml: Average (Log CFU/ml) ([4]; time-point 4 hours)
1.7e+06 CFU/mL: viable count ([2]; time-point 1 hours)
4830 CFU/mL: n = 3 (CFU/mL) ([1]; time-point 1 hours)
1000000 CFU/ml: Average (Log CFU/ml) ([3]; time-point 1 hours) | n = 1 (Log CFU/ml) ([3]; time-point 1 hours)
